These results are taken from the supplement of paper PMC10307832.

Common to all, as to assay: relative viability (nuclei count vs DMSO), 5 days (fraction); higher = more cells survive
Compound in the test “Pictilisib + Pemetrexed”: CS(=O)(=O)N1CCN(Cc2cc3nc(-c4cccc5[nH]ncc45)nc(N4CCOCC4)c3s2)CC1 [Pictilisib] + Nc1nc2[nH]cc(CCc3ccc(C(=O)N[C@@H](CCC(=O)O)C(=O)O)cc3)c2c(=O)[nH]1 [Pemetrexed] (partner 0.2 µM)
Summed up:
(§1)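 Cells from lung cancer lines were seeded into 1536-well plates and, one day later, dosed by pin tool. Treatments were either a single drug or a fixed dose of an anchor drug with five library-drug doses (not always all listed) in √10 steps. After 5 days, nuclei were stained in a one-step fixation (final 0.05% Triton X-100, 1% formaldehyde, 1 ug/ml Hoechst) and counted on 4× images, and relative viability is the treated-to-vehicle nuclei ratio, as the median of duplicate plates.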

Compound in the test “MK-2206 + Trametinib”: NC1(c2ccc(-c3nc4ccn5c(=O)[nH]nc5c4cc3-c3ccccc3)cc2)CCC1 [MK-2206] + CC(=O)Nc1cccc(-n2c(=O)n(C3CC3)c(=O)c3c(Nc4ccc(I)cc4F)n(C)c(=O)c(C)c32)c1 [Trametinib] (partner 0.02 µM)
Summed up:
as §1

Compound in the test “MK-2206 + Tozasertib”: NC1(c2ccc(-c3nc4ccn5c(=O)[nH]nc5c4cc3-c3ccccc3)cc2)CCC1 [MK-2206] + Cc1cc(Nc2cc(N3CCN(C)CC3)nc(Sc3ccc(NC(=O)C4CC4)cc3)n2)n[nH]1 [Tozasertib] (partner 0.1 µM)
Summed up: as §1

Compound in the test “MK-2206 + Linsitinib”: NC1(c2ccc(-c3nc4ccn5c(=O)[nH]nc5c4cc3-c3ccccc3)cc2)CCC1 [MK-2206] + C[C@]1(O)C[C@@H](c2nc(-c3ccc4ccc(-c5ccccc5)nc4c3)c3c(N)nccn32)C1 [Linsitinib] (partner 1 µM)
Summed up:
as §1

Compound in the test “MK-2206 + Palbociclib”: NC1(c2ccc(-c3nc4ccn5c(=O)[nH]nc5c4cc3-c3ccccc3)cc2)CCC1 [MK-2206] + CC(=O)c1c(C)c2cnc(Nc3ccc(N4CCNCC4)cn3)nc2n(C2CCCC2)c1=O [Palbociclib] (partner 0.5 µM)
An outline of the steps:
as §1

On to UMC-11, for which the relative viability with Pictilisib + Pemetrexed (first compound 0.02 µM) is 0.784; with Pictilisib + Pemetrexed (first compound 0.06325 µM), 0.787; with Pictilisib + Pemetrexed (first compound 0.6325 µM), 0.737; with Pictilisib + Pemetrexed (first compound 2 µM) it was 0.535; in the test with MK-2206 + Trametinib (first compound 0.01 µM), 0.594; with MK-2206 + Trametinib (first compound 0.03162 µM) it was 0.717. Also, the relative viability came to 0.772 in the test with MK-2206 + Trametinib (first compound 0.3162 µM); 0.966 with MK-2206 + Trametinib (first compound 1 µM); 0.194 with MK-2206 + Tozasertib (first compound 0.01 µM); 0.2 with MK-2206 + Tozasertib (first compound 0.03162 µM); 0.214 with MK-2206 + Tozasertib (first compound 0.3162 µM); 0.192 in the test with MK-2206 + Tozasertib (first compound 1 µM). For the same cell line, the relative viability was 1.1 with MK-2206 + Linsitinib (first compound 0.01 µM); 1.02 with MK-2206 + Linsitinib (first compound 0.03162 µM); 1.01 in the test with MK-2206 + Linsitinib (first compound 0.3162 µM); 1.01 in the test with MK-2206 + Linsitinib (first compound 1 µM); 0.318 in the test with MK-2206 + Palbociclib (first compound 0.01 µM); 0.359 in the test with MK-2206 + Palbociclib (first compound 0.03162 µM). Moreover, the values for the relative viability in the test with MK-2206 + Palbociclib (first compound 0.3162 µM) and with MK-2206 + Palbociclib (first compound 1 µM) were 0.288 and 0.317, respectively.
